The text below walks through data of ChEMBL document CHEMBL1201862, “PubChem BioAssay data set” (2004).

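Cells were grown in 96-well plates and exposed to each compound for 48 hours at five concentrations; endpoints were interpolated linearly between bracketing concentrations, or set to the highest concentration if not reached. The concentration for 50% growth inhibition is given as GI50.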 The source made the active and inactive calls. Cut-off read from the data, not from the text of the source: active = GI50 up to about 1.1 µM and inactive = higher.

Test in all cases: NCI tumour cell line growth inhibition, 48 h
The subject of assay [1] is CAKI-1.
The subject of assay [2] is DLD-1.
Assay [3] relates to HCC 2998.
The subject of assay [4] is HCT-116.
For assay [5], the system named is HCT-15.
Assay [6] deals with HOP-18.
The test system of assay [7] is HOP-62.
Assay [8] concerns HOP-92.
Assay [9] has as its system LOX IMVI.
Assay [10] has as its system Malme-3M.
Assay [11] has as its system NCI-H226.
In assay [12] the test system is NCI-H522.
In assay [13] the test system is NCI/ADR-RES.
For assay [14], the system named is OVCAR-4.
Assay [15] deals with OVCAR-5.
Assay [16] has as its system RPMI-8226.
The subject of assay [17] is SF-268.
The subject of assay [18] is SK-MEL-2.
In assay [19] the test system is UACC-62.
Assay [20] has as its system ACHN.

Turning to `Cc1c2c(cc3c1[nH]c1ccccc13)C=NCC2`, the GI50 in assay [1] is 11.3 µM (inactive); in assay [2], 4.2 µM (inactive); in [3] it was 21.5 µM (inactive); in [4], 6.34 µM (inactive); in assay [5], 13.1 µM; in assay [6] it was 9.62 µM (inactive). In addition, the GI50 is 31.8 µM (inactive) in assay [7]; 3.18 µM (inactive) in assay [8]; 8.09 µM (inactive) in assay [9]; 6.61 µM (inactive) in assay [10]; 20.7 µM (inactive) in [11]; 12.9 µM (inactive) in assay [12]. The GI50 in [13] was 12.2 µM (inactive); in assay [14], 16.6 µM (inactive); in [15] it was 22 µM (inactive); in assay [16] it was 10.5 µM (inactive); in assay [17], 16.8 µM (inactive); in [18] it was 10.1 µM (inactive). In assay [19], the GI50 was 8.49 µM (inactive).
Consider `CC(=O)NC1=C[C@@H]([C@H]2COC(C)(C)O2)OC1=O`, for which the GI50 in assay [1] is > 100 µM (inactive); in [2], > 100 µM (inactive); in assay [3], 99.3 µM (inactive); in [4], > 100 µM (inactive); in assay [5], above 100 µM; in [6], > 100 µM (inactive). Moreover, the GI50 in [7], in assay [8], in assay [9], in [10], in [11] and in [12] was > 100 µM (inactive) in each case. For the same compound, the GI50 in assay [13], in assay [15], in [16], in [17], in assay [18] and in assay [19] was > 100 µM (inactive) each time.
In the case of `CCCCOc1ccc(OCCCCCCCCCC[N+](C)(C)C)cc1`, the GI50 in assay [1] was 3.73 µM (inactive); in assay [2] it was 6.38 µM (inactive); in [3] it was 1.95 µM (inactive); in assay [4] it was 2.34 µM (inactive); in assay [5] it was 14.9 µM; in assay [6], 3.42 µM (inactive). Further, the GI50 in assay [7] is 3.62 µM (inactive); in [8], 1.33 µM (inactive); in assay [9], 1.53 µM (inactive); in [10], 4.37 µM (inactive); in [11], 4.26 µM (inactive); in [12], 1.7 µM (inactive). For the same compound, the GI50 is 58.9 µM (inactive) in assay [13]; 2.86 µM (inactive) in [14]; 4.65 µM (inactive) in assay [15]; 0.481 µM (active) in [16]; 3.13 µM (inactive) in assay [17]; 2.01 µM (inactive) in assay [18]. The GI50 in [19] is 4.06 µM (inactive).
In the case of `N=C(N)Nc1ncccc1[N+](=O)[O-]`, the GI50 was > 100 µM (inactive) in assay [1]; > 100 µM (inactive) in assay [2]; 55.2 µM (inactive) in [3]; 38.4 µM (inactive) in assay [4]; 82.2 µM in assay [5]; > 100 µM (inactive) in [6]. Moreover, the GI50 in assay [7] is > 100 µM (inactive); in [8] it was > 100 µM (inactive); in [9], 33.1 µM (inactive); in assay [10], 44.6 µM (inactive); in [11], > 100 µM (inactive); in assay [12], > 100 µM (inactive). Moreover, the GI50 in assay [13] was > 100 µM (inactive); in assay [14], > 100 µM (inactive); in assay [15], > 100 µM (inactive); in assay [16] it was > 95.1 µM (inactive); in assay [17], 74.6 µM (inactive); in [18], > 100 µM (inactive). For the same compound, in [19], the GI50 was > 100 µM (inactive).
Consider `CSc1nc(NC2OCC(O)C(O)C2O)c(N)c(=O)[nH]1` (configuration not stated), for which the GI50 was > 100 µM (inactive) in assay [2]; > 100 µM (inactive) in [3]; > 100 µM (inactive) in [4]; above 100 µM in [5]; > 100 µM (inactive) in assay [6]; > 100 µM (inactive) in assay [7]. The GI50 in assay [8], in assay [9], in assay [10], in assay [11], in assay [12] and in assay [13] was > 100 µM (inactive) in each case. For the same compound, the GI50 in assay [14], in assay [15], in [16], in [17], in [18] and in [19] was > 100 µM (inactive) throughout.
For `CC1(C)C(O)C[C@@H](O)[C@@]2(C)C1CC[C@]1(C)C2C[C@@H](O)[C@@H]2C([C@@]3(C)CC[C@@H](C(C)(C)O)O3)CCC21C` (some centres not stated), the GI50 in assay [20] was 19.1 µM (inactive); in [1] it was 18.3 µM (inactive); in assay [2], 16.5 µM (inactive); in assay [3] it was 17.5 µM (inactive); in assay [4], 17 µM (inactive); in assay [5], 12.6 µM. Besides, the GI50 was 16.8 µM (inactive) in [6]; 16.6 µM (inactive) in [7]; 9.68 µM (inactive) in [8]; 11 µM (inactive) in assay [9]; 13.4 µM (inactive) in [10]; 19.5 µM (inactive) in assay [11]. The GI50 in assay [12] is 14.6 µM (inactive); in [14], 22.4 µM (inactive); in assay [15], 16.1 µM (inactive); in [16] it was 16.7 µM (inactive); in [17], 17.2 µM (inactive); in [18] it was 14.7 µM (inactive). Besides, the GI50 in [19] was 9.93 µM (inactive).
Turning to `Nc1[nH]cnc2ncnc1-2` [ADENINE], the GI50 in assay [2] is 135 µM (inactive); in assay [3] it was > 125 µM (inactive); in [4], > 250 µM (inactive); in assay [6], 109 µM (inactive); in [7] it was 58.9 µM (inactive); in [8], 146 µM (inactive). Also, the GI50 in assay [9] is 140 µM (inactive); in assay [11], 111 µM (inactive); in [12], 50.7 µM (inactive); in assay [13], 46.2 µM (inactive); in assay [14] it was > 126 µM (inactive); in assay [15] it was > 250 µM (inactive). The figures for the GI50 in assay [16], in assay [18] and in assay [19] were 168 µM (inactive), > 250 µM (inactive) and 48.1 µM (inactive), respectively.
